Paper PMC10205801 (2023)

Assays:
[1] = tested on: Beetroot (RNA, aptamer) GCGCCGGUUAGGCAGAGGUGGGUGGUGUGGAGGAGUAUCUGUCCGGCGC; experiment: ITC; details: 150 mM K+, 5 mM Mg2+; 20 mM MOPS-KOH pH 7.0, 25 °C (methods; text gives 21 °C); two equivalent sites per dimer; per site
[2] = tested on: Beetroot (RNA, aptamer) GCGCCGGUUAGGCAGAGGUGGGUGGUGUGGAGGAGUAUCUGUCCGGCGC; experiment: fluorescence titration; details: 150 mM K+, 5 mM Mg2+; 20 mM MOPS-KOH pH 7.0; RNA titrated into dye
[3] = tested on: A16U + U38G (Wobble Beetroot) (RNA, aptamer) GCGCCGGUUAGGCAGUGGUGGGUGGUGUGGAGGAGUAGCUGUCCGGCGC; experiment: fluorescence titration; details: 150 mM K+, 5 mM Mg2+; 20 mM MOPS-KOH pH 7.0; RNA titrated into dye
[4] = tested on: A31C (RNA, aptamer) GCGCCGGUUAGGCAGAGGUGGGUGGUGUGGCGGAGUAUCUGUCCGGCGC; experiment: fluorescence activation; details: 150 mM K+, 5 mM Mg2+; 20 mM MOPS-KOH pH 7.0; fluorescence reduced at least 50% relative to wild-type
[5] = tested on: A31U (RNA, aptamer) GCGCCGGUUAGGCAGAGGUGGGUGGUGUGGUGGAGUAUCUGUCCGGCGC; experiment: fluorescence activation; details: 150 mM K+, 5 mM Mg2+; 20 mM MOPS-KOH pH 7.0; fluorescence reduced at least 50% relative to wild-type
[6] = tested on: A16C + U38G (RNA, aptamer) GCGCCGGUUAGGCAGCGGUGGGUGGUGUGGAGGAGUAGCUGUCCGGCGC; experiment: fluorescence activation; details: 150 mM K+, 5 mM Mg2+; 20 mM MOPS-KOH pH 7.0; considerably less fluorescent than wild-type
[7] = tested on: A16U + U38A (RNA, aptamer) GCGCCGGUUAGGCAGUGGUGGGUGGUGUGGAGGAGUAACUGUCCGGCGC; experiment: fluorescence activation; details: 150 mM K+, 5 mM Mg2+; 20 mM MOPS-KOH pH 7.0; considerably less fluorescent than wild-type
[8] = tested on: J1/2 deletion (RNA, aptamer) GCGCCGGGCAGAGGUGGGUGGUGUGGAGGAGUAUCUGUCCGGCGC; experiment: fluorescence activation; details: 150 mM K+, 5 mM Mg2+; 20 mM MOPS-KOH pH 7.0; fluorescence comparable to wild-type
[9] = tested on: F30_Beetroot (RNA, aptamer) GGAGCCAUGUGUAUGUGGUCCGCGCCGGUUAGGCAGAGGUGGGUGGUGUGGAGGAGUAUCUGUCCGGCGCGGACCACAUACUCUGAUGAUCCUUCGGGAUCAUUCAUGGCUCC; experiment: fluorescence emission spectrum; details: 150 mM K+, 5 mM Mg2+; 20 mM MOPS-KOH pH 7
[10] = tested on: F30-wild-type Beetroot / Wobble Beetroot heterodimer (RNA, aptamer) GGAGCCAUGUGUAUGUGGUCCGCGCCGGUUAGGCAGAGGUGGGUGGUGUGGAGGAGUAUCUGUCCGGCGCGGACCACAUACUCUGAUGAUCCUUCGGGAUCAUUCAUGGCUCC/GCGCCGGUUAGGCAGUGGUGGGUGGUGUGGAGGAGUAGCUGUCCGGCGC; experiment: fluorescence emission spectrum; details: 150 mM K+, 5 mM Mg2+; 20 mM MOPS-KOH pH 7
[11] = tested on: Beetroot (RNA, aptamer) GCGCCGGUUAGGCAGAGGUGGGUGGUGUGGAGGAGUAUCUGUCCGGCGC; experiment: co-crystal structure, 2.1 Å; fluorescence activation; details: K+

| Kd [1] [µM] | Kd [2] [µM] | Kd [3] [µM] | binding [4] | binding [5] | binding [6] | binding [7] | binding [8] | binding [9] | binding [10] | binding [11] | SMILES |
| --- | --- | --- | --- | --- | --- | --- | --- | --- | --- | --- | --- |
| 0.47 ± 0.18 | 1.55 | 4.9 ± 1.2 | yes | yes | yes | yes | yes | yes | yes | – | COC(=O)/C=C/C1=NC(=C\c2cc(F)c(O)c(F)c2)/C(=O)N1C |
| – | – | – | – | – | – | – | – | – | – | yes | Cc1ccc2c(c1)sc(-c1ccc(N(C)C)cc1)[n+]2C |
| – | 9.3 ± 1.5 | 7.6 ± 0.8 | – | – | – | – | – | – | yes | – | CN1C(=O)/C(=C/c2cc(F)c(O)c(F)c2)N=C1/C=N/O |
